Assay results reported in US8821836B2, “SPARC binding peptides and uses thereof” (Abraxis BioScience, LLC, priority 2008, dated 2014).
“Also recorded” adds a separate entry of the source.

Experiments:
[1] = tested on: PC3 prostatecarcinoma xenograft; assay: Antitumor activity in PC3 xenograft model; type: in vivo, nude mouse; details: for tumor growth inhibition: FIG. 13
Experimental: FIG. 13 depicts the antitumor activity of PD 15 and PD 21 in a human prostate cancer/nude mouse model system.
The PD 15 and PD 21-Fc fusion proteins were assayed for antitumor activity in a murine-human PC3 prostatecarcinoma xenograft model.

SPARC = target: T1, SPARC (Homo sapiens, UniProt P09486); assay: Concentration dependent binding ELISA; details: for binding to SPARC compared with anti-SPARC antibody: ELISA, FIG. 9
T1 sequence (P09486 18-303): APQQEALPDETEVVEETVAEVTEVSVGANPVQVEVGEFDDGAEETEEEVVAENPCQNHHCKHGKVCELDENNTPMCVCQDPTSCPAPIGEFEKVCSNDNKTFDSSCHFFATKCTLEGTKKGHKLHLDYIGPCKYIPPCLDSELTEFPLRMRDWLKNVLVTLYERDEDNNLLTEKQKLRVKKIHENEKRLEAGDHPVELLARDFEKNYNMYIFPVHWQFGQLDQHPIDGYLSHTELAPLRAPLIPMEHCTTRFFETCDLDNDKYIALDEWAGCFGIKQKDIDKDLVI

[2] = tested on: non-SPARC proteins in 5,000 proteins on the array; assay: Protein microarray analysis (Invitrogen ProtoArray v.3), off target binding
Source text: FIG. 8 depicts the Protoarray used to define off target binding of PD 15 and PD21.

[3] = tested on: sections of a human brain tumor (SPARC expressing tumor); assay: Immunohistochemical staining of tumor sections; details: IHC, FIGS. 10 and 11
Source text: FIGS. 10 and 11 show the co-localization of SPARC (as indicated by immunohistochemical (IHC) staining with an anti-SPARC antibody) and the binding of PD 15 and PD 21 in sections of a human brain tumor (which have been epitope tagged for IHC staining.).

HT29 colon xenograft = assay: Antitumor activity in HT29 xenograft model; type: in vivo, mouse; details: FIG. 14

| Substance | tumor growth inhibition [1] | binding to SPARC compared with anti-SPARC antibody (SPARC) | cross reactivity with non-SPARC proteins [2] | binding to / staining of tumor tissue [3] | antitumor activity, comparison (HT29 colon xenograft) | affinity for SPARC, PD 15 versus PD 21 (SPARC; ELISA and IHC experiments) | antitumor activity, comparison [1] |
| --- | --- | --- | --- | --- | --- | --- | --- |
| PD 15-Fc: fusion protein of SPARC binding peptide PD 15 with human IgG1 Fc domain (pFUSE-hIgG1-Fc2 vector) (YTRLHHWIPPQR) | statistically significant tumor growth inhibition | – | – | – | – | – | – |
| PD 21-Fc: fusion protein of SPARC binding peptide PD 21 with human IgG1 Fc domain (pFUSE-hIgG1-Fc2 vector) (VTPLLKFRALSS) | statistically significant tumor growth inhibition | – | – | – | – | – | – |
| VTPLLKFRALSS [PD 21] | – | only slightly weaker than that of an anti-SPARC antibody | only minimal cross reactivity | binding | better antitumor activity than PD 15; also recorded: activity closely equivalent to Abraxane | – | – |
| YTRLHHWIPPQR [PD 15] | – | only slightly weaker than that of an anti-SPARC antibody | only minimal cross reactivity | binding | – | higher affinity for SPARC than PD 21 | better antitumor activity than PD21 |
